{"source": "patent US20070093969A1", "about": "“Molecular nephrotoxicology modeling” (priority 2002, published 2007)", "test_system": "kidney tissue gene expression", "conditions": "rat, in vivo", "data": [{"smiles": "ClC(Cl)Cl", "note": "[chloroform, Chloroform (CHCl3)]", "values": [{"measurement": "Tox Group Mean, GLGC Identifier 1143", "result": 131.83}, {"measurement": "Tox Group Mean, GLGC Identifier 1409", "result": 298.20}, {"measurement": "Tox Group Mean, GLGC Identifier 1509", "result": 431.65}, {"measurement": "Tox Group Mean, GLGC Identifier 1581", "result": 87.66}, {"measurement": "Tox Group Mean, GLGC Identifier 1644", "result": 418.83}, {"measurement": "Tox Group Mean, GLGC Identifier 1652", "result": 476.16}, {"measurement": "Tox Group Mean, GLGC Identifier 1653", "result": 686.13}, {"measurement": "Tox Group Mean, GLGC Identifier 1877", "result": 444.75}, {"measurement": "Tox Group Mean, GLGC Identifier 1929", "result": 536.97}, {"measurement": "Tox Group Mean, GLGC Identifier 1949", "result": 57.75}, {"measurement": "Tox Group Mean, GLGC Identifier 2059", "result": 219.06}, {"measurement": "Tox Group Mean, GLGC Identifier 2439", "result": 102.63}, {"measurement": "Tox Group Mean, GLGC Identifier 2912", "result": 1436.37}, {"measurement": "Tox Group Mean, GLGC Identifier 3015", "result": 2837.91}, {"measurement": "Tox Group Mean, GLGC Identifier 3091", "result": 421.64}, {"measurement": "Tox Group Mean, GLGC Identifier 3803", "result": 975.63}, {"measurement": "Tox Group Mean, GLGC Identifier 3875", "result": 252.35}, {"measurement": "Tox Group Mean, GLGC Identifier 4178", "result": 444.39}, {"measurement": "Tox Group Mean, GLGC Identifier 4462", "result": 414.41}, {"measurement": "Tox Group Mean, GLGC Identifier 4463", "result": 43.16}, {"measurement": "Tox Group Mean, GLGC Identifier 4473", "result": 95.76}, {"measurement": "Tox Group Mean, GLGC Identifier 4933", "result": 743.88}, {"measurement": "Tox Group Mean, GLGC Identifier 5369", "result": 274.28}, {"measurement": "Tox Group Mean, GLGC Identifier 6127", "result": 41.36}, {"measurement": "Tox Group Mean, GLGC Identifier 6343", "result": 46.79}, {"measurement": "Tox Group Mean, GLGC Identifier 6641", "result": 233.86}, {"measurement": "Tox Group Mean, GLGC Identifier 7216", "result": 123.29}, {"measurement": "Tox Group Mean, GLGC Identifier 7299", "result": 334.53}, {"measurement": "Tox Group Mean, GLGC Identifier 7505", "result": 274.29}, {"measurement": "Tox Group Mean, GLGC Identifier 7622", "result": 88.74}, {"measurement": "Tox Group Mean, GLGC Identifier 7634", "result": 538.91}, {"measurement": "Tox Group Mean, GLGC Identifier 7936", "result": 93.98}, {"measurement": "Tox Group Mean, GLGC Identifier 8721", "result": 73.87}, {"measurement": "Tox Group Mean, GLGC Identifier 8829", "result": 505.66}, {"measurement": "Tox Group Mean, GLGC Identifier 8927", "result": 508.53}, {"measurement": "Tox Group Mean, GLGC Identifier 8946", "result": 112.12}, {"measurement": "Tox Group Mean, GLGC Identifier 9116", "result": 269.31}, {"measurement": "Tox Group Mean, GLGC Identifier 9176", "result": 288.61}, {"measurement": "Tox Group Mean, GLGC Identifier 9191", "result": 277.28}, {"measurement": "Tox Group Mean, GLGC Identifier 10130", "result": 117.70}, {"measurement": "Tox Group Mean, GLGC Identifier 11761", "result": 49.48}, {"measurement": "Tox Group Mean, GLGC Identifier 11843", "result": 61.43}, {"measurement": "Tox Group Mean, GLGC Identifier 11953", "result": 1079.47}, {"measurement": "Tox Group Mean, GLGC Identifier 12129", "result": 245.65}, {"measurement": "Tox Group Mean, GLGC Identifier 13610", "result": 226.14}, {"measurement": "Tox Group Mean, GLGC Identifier 13646", "result": 1169.38}, {"measurement": "Tox Group Mean, GLGC Identifier 13727", "result": 35.36}, {"measurement": "Tox Group Mean, GLGC Identifier 14267", "result": 1171.51}, {"measurement": "Tox Group Mean, GLGC Identifier 15072", "result": 42.04}, {"measurement": "Tox Group Mean, GLGC Identifier 15836", "result": 121.07}, {"measurement": "Tox Group Mean, GLGC Identifier 15964", "result": 583.51}, {"measurement": "Tox Group Mean, GLGC Identifier 16468", "result": 831.97}, {"measurement": "Tox Group Mean, GLGC Identifier 16469", "result": 991.10}, {"measurement": "Tox Group Mean, GLGC Identifier 16756", "result": 361.18}, {"measurement": "Tox Group Mean, GLGC Identifier 16948", "result": 145.85}, {"measurement": "Tox Group Mean, GLGC Identifier 16958", "result": 61.46}, {"measurement": "Tox Group Mean, GLGC Identifier 17361", "result": 50.93}, {"measurement": "Tox Group Mean, GLGC Identifier 17516", "result": 500.55}, {"measurement": "Tox Group Mean, GLGC Identifier 17524", "result": 799.10}, {"measurement": "Tox Group Mean, GLGC Identifier 17541", "result": 1464.81}, {"measurement": "Tox Group Mean, GLGC Identifier 18509", "result": 311.54}, {"measurement": "Tox Group Mean, GLGC Identifier 19110", "result": 84.32}, {"measurement": "Tox Group Mean, GLGC Identifier 19144", "result": 36.63}, {"measurement": "Tox Group Mean, GLGC Identifier 19377", "result": 155.74}, {"measurement": "Tox Group Mean, GLGC Identifier 19679", "result": 440.67}, {"measurement": "Tox Group Mean, GLGC Identifier 19822", "result": 994.53}, {"measurement": "Tox Group Mean, GLGC Identifier 20000", "result": 93.69}, {"measurement": "Tox Group Mean, GLGC Identifier 20582", "result": 347.72}, {"measurement": "Tox Group Mean, GLGC Identifier 20708", "result": 80.85}, {"measurement": "Tox Group Mean, GLGC Identifier 20725", "result": 621.86}, {"measurement": "Tox Group Mean, GLGC Identifier 20741", "result": 236.26}, {"measurement": "Tox Group Mean, GLGC Identifier 21025", "result": 233.83}, {"measurement": "Tox Group Mean, GLGC Identifier 21060", "result": 133.69}, {"measurement": "Tox Group Mean, GLGC Identifier 21061", "result": 86.99}, {"measurement": "Tox Group Mean, GLGC Identifier 21088", "result": 56.92}, {"measurement": "Tox Group Mean, GLGC Identifier 21562", "result": 265.87}, {"measurement": "Tox Group Mean, GLGC Identifier 22490", "result": 811.57}, {"measurement": "Tox Group Mean, GLGC Identifier 22537", "result": 145.19}, {"measurement": "Tox Group Mean, GLGC Identifier 22648", "result": 313.31}, {"measurement": "Tox Group Mean, GLGC Identifier 22783", "result": 473.86}, {"measurement": "Tox Group Mean, GLGC Identifier 22855", "result": 373.13}, {"measurement": "Tox Group Mean, GLGC Identifier 22985", "result": 83.55}, {"measurement": "Tox Group Mean, GLGC Identifier 23033", "result": 431.39}, {"measurement": "Tox Group Mean, GLGC Identifier 23115", "result": 278.57}, {"measurement": "Tox Group Mean, GLGC Identifier 23282", "result": 425.15}, {"measurement": "Tox Group Mean, GLGC Identifier 23718", "result": 65.41}, {"measurement": "Tox Group Mean, GLGC Identifier 24234", "result": 408.25}, {"measurement": "Tox Group Mean, GLGC Identifier 24437", "result": 56.38}, {"measurement": "Tox Group Mean, GLGC Identifier 25168", "result": 32.68}, {"measurement": "Tox Group Mean, GLGC Identifier 25643", "result": 187.37}, {"measurement": "Tox Group Mean, GLGC Identifier 25777", "result": 1173.74}, {"measurement": "Tox Group Mean, GLGC Identifier 25862", "result": 38.61}, {"measurement": "Tox Group Mean, GLGC Identifier 25921", "result": 47.30}, {"measurement": "Tox Group Mean, GLGC Identifier 26183", "result": 64.68}]}]}
